Reference: patent publication US20080200393A1, “Method and Composition For Treating Angiogenesis and For Preventing Cancer Progression and Metastasis Comprising a Prostate Secretory Protein (Psp94) Family Member” (Ambrillia Biopharma Inc., priority 2004, published 2008)
Where no end group is shown, it is not given here. The star is where a group is joined. Acm = CC(=O)NC*

Key:
ERK [1] = assay: Intrinsic effect on ERK phosphorylation (Western blot); assay type: cell-based
Method: The induction of the MAPK pathway by the PCK3145 derivative is further confirmed by the rapid and transient induction of ERK phosphorylation between 5-10 minutes (FIG. 8B) and is shown to be dose-dependent (FIG. 8C). Finally, the effects of the PCK3145 derivative were also compared to those of a scrambled peptide.

proMMP-2 = assay: Gelatin zymography of HUVEC conditioned media; assay type: cell-based, Human; details: HUVEC, serum-free media
Method: Zymography. Zymography is a technique generally used to analyze the activity of matrix metalloproteinases (MMPs) in biological samples. It involves the electrophoretic separation of proteins under denaturing (Sodium Dodecyl Sulfate (SDS)) but non-reducing conditions through a polyacrylamide gel containing gelatin (for example, 10% gel containing 1 mg/ml gelatin for MMP-9 and MMP-2 assays). The resolved proteins are re-natured by exchanging SDS with a non-ionic detergent such as Triton X-100 and the gel is incubated in an incubation buffer for activation of MMP-2 and MMP-9 (for example at 37° C. for 18 hrs). The gel is stained with Coomassie blue and the MMP-2 and MMP-9 bands may be visualized as clear bands against a blue background (i.e., the MMPs degrade the gelatin and are visualized as clear bands; pro MMP-2 is 68 kDa and pro-MMP-9 is 92 kDa). These bands can be quantified using densitometry. For example, prior to stimulation, quiescent HUVEC were serum-starved for 16 h in the presence or absence of PCK3145 or PD98059 and then stimulated with VEGF. The conditioned media were collected 24 h after stimulation, and clarified by centrifugation. Identical volume of conditioned media were mixed with non reducing Laemmli sample buffer and subjected to 7.5% SDS-polyacrylamide gels containing 1 mg/ml gelatin (Sigma). The gels were then incubated for 30 min at room temperature twice in 2.5% (v/v) Triton X-100 and rinsed five times in doubly distilled water. The gels were incubated at 37° C. for a further 18 h in 200 mM NaCl/5 mM CaCl2/0.02% (v/v) Brij-35/50 mM Tris/HCl buffer (pH 7.6), then stained with 0.1% Coomassie Brilliant Blue R-250, followed by destaining in 10% (v/v) acetic acid/30% (v/v) methanol in water. Gelatinolytic activity was detected as unstained bands on a blue background.
The effect of the PCK3145 derivative (SEQ ID NO.:7) on MMP extracellular levels was thus assessed by gelatin-zymography in the conditioned media of serum-starved HUVEC. After 16 hours of starvation, HUVEC were stimulated with VEGF in the presence or not of the PCK3145 derivative. […]

VEGFR-2 = molecular target: T1, VEGFR-2 (Homo sapiens, UniProt P35968); assay: VEGF-induced VEGFR-2 phosphorylation in HUVEC (immunoprecipitation, Western blot); assay type: cell-based
T1 construct: host or cells: HUVEC
T1 sequence (P35968 20-1356): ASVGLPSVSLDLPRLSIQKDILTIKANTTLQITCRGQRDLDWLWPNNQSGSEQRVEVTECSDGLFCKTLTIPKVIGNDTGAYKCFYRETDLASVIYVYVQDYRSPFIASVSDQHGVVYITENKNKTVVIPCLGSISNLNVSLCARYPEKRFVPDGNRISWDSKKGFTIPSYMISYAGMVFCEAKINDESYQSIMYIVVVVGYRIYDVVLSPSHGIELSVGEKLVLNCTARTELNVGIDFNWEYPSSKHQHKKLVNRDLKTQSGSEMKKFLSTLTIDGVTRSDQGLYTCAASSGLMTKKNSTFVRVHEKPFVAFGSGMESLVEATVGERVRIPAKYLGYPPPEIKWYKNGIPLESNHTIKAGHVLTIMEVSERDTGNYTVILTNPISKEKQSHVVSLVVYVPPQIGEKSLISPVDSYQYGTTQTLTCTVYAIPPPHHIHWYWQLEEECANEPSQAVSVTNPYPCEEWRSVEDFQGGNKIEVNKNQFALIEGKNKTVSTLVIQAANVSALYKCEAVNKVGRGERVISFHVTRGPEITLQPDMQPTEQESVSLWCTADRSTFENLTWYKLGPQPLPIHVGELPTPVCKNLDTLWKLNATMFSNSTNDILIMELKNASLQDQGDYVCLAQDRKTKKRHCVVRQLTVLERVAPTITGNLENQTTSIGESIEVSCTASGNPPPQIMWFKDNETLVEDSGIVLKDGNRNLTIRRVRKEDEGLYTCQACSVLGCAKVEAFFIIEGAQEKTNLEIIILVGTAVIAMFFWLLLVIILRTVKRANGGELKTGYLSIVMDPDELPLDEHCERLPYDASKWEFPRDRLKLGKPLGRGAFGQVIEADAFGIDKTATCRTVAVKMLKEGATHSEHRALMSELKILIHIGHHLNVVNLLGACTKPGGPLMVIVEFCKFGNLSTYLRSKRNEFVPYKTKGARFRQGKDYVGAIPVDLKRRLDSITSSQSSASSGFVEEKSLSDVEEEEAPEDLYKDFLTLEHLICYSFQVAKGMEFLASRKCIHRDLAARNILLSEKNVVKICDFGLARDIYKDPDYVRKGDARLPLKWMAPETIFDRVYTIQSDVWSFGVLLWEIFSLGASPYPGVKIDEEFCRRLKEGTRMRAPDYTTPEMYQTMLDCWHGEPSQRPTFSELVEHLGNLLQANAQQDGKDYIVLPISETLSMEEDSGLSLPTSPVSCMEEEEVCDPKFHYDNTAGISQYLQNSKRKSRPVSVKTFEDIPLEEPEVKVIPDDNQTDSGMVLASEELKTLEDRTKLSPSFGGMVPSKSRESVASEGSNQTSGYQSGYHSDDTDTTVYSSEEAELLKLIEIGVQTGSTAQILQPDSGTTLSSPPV
Method: (§1) Immunoprecipitation and immunoblotting procedures. After treatment, cells were washed once with phosphate-buffered saline (PBS) containing 1 mM sodium orthovanadate and were incubated in the same medium for 1 h at 4° C. The cells were solubilized on ice in lysis buffer (150 mM NaCl, 10 mM Tris-HCl, pH 7.4, 1 mM EDTA, 1 mM EGTA, 0.5% Nonidet P-40, 1% Triton X-100) containing 1 mM sodium orthovanadate. The cells were then scraped from the culture dishes and the resulting lysates were clarified by centrifugation at 10,000 g for 10 min; Protein concentrations were determined using the micro bicinchoninic acid method (Pierce). For immunoprecipitation studies, lysates were clarified by a 1 h incubation at 4° C. with a mixture of Protein A/Protein G Sepharose beads. After removal of the Sepharose beads by low-speed centrifugation, identical amounts of protein (200 μg) from each sample were transferred to fresh tubes and incubated in lysis buffer overnight at 4° C. in the presence of 2 μg/ml of specific antibodies. Immunocomplexes were collected by incubating the mixture with 25 μl (50% suspension) of Protein A- (rabbit primary antibody) or Protein G- (mouse primary antibody) Sepharose beads, for 2 h. Nonspecifically-bound material was removed by washing the beads three times in 1 ml of lysis buffer containing 1 mM sodium orthovanadate, and bound material was solubilized in 25 μl of two-fold concentrated Laemmli sample buffer (125 mM Tris-HCl (pH 6.8), 20% glycerol, 4% SDS, 10% β-mercaptoethanol, and 0.00125% bromphenol blue), boiled 5 min, and resolved by SDS-PAGE. […] The immunoreactive bands were quantified by scanning densitometry (Molecular Dynamics).
The multifunctionality of VEGF at the cellular level results from its ability to initiate a diverse, complex and integrated network of signaling pathways via its major receptor, VEGFR-2. […] After each treatment, equal amounts of protein were immunoprecipitated with anti-VEGFR-2 polyclonal antibodies and analysed by Western blotting.

ERK [2] = assay: Induced ERK phosphorylation in HUVEC (Western blot); assay type: cell-based, Human
Method: Cell culture. Human umbilical vein endothelial cells (HUVEC) and pulmonary aortic smooth muscle cells (PASMC) were obtained from Clonetics and maintained in endothelial cell basal medium-2 (EBM-2; Clonetics) and smooth muscle medium-2 (SmGM-2; Clonetics), respectively. Cells were cultured at 37° C. under a humidified atmosphere containing 5% CO2. For experimental purposes, cells were plated in 8 100-mm plastic dishes at 5,000 cells/cm^2 and were grown to confluence before overnight serum starvation. Cells were treated with vehicle or with a PCK3145 derivative diluted in 0.1 N NaOH, and stimulated with 50-100 ng/ml VEGF or PDGF, with 10 ng/ml of bFGF (basic fibroblast growth factor) or with 1 μM S1P (sphingosine-1-phosphate).
as §1, with “SDS-PAGE. The proteins were transferred onto polyvinylidene difluoride (PVDF) membranes, blocked 1 h at room temperature with Tris-buffered saline/Tween 20 (147 mM NaCl, 20 mM Tris/HCl, pH 7.5, and 0.1% Tween 20) containing 2% bovine serum albumin and incubated overnight at 4° C. with primary antibody.” for “SDS-PAGE.”
VEGF is a strong activator of ERKs (Extracellular-signal-Regulated protein Kinases) 1 and 2 via VEGF receptor 2. In order to test the ability of the PCK3145 derivative in potentially antagonizing VEGF-mediated ERK phosphorylation, serum-starved quiescent endothelial cells (HUVEC) were incubated with vehicle (phosphate-buffered saline (PBS) pH 7.4) or PCK3145 derivative (300 μg/ml) for 24 h and then stimulated with VEGF, bFGF (basic Fibroblast Growth Factor) or S1P (sphingosine-1-phosphate). Cells were washed with PBS containing NaF/Na3VO4 and incubated in the same medium buffer for 1 h at 4° C. The cells were scraped from the culture dishes and the resulting lysates clarified by centrifugation. Western blotting and immunodetection using anti-phosphoERK and anti-ERK antibodies was then performed.

HUVEC = HUVEC migration assay (modified Boyden chambers, gelatin-coated filters); assay type: cell-based, Human; details: 300 μg/ml
Method: Migration Assays. Transwells filters (8-μm pore size; Costar, Cambridge, Mass.) were pre-coated with 0.5% gelatin/PBS for 24 h at 4° C. The transwells were then washed with PBS and assembled in 24-well plates. The upper chamber of each transwell was filled with 100 μl of HUVEC (1×10^6 cells/ml) and cells were allowed to adhere for 1 h. Cells were then treated for 2 h by adding 100 μl of 2-fold concentrated drug solution prepared in serum-free medium into the upper chamber and 600 μl of the drug solution into the lower chamber. Migration was initiated by adding VEGF (10 ng/ml), or S1P (1 μM) to the lower chamber. The plate was placed at 37° C. in 5% CO2/95% air for 4 h. Cells that had migrated to the lower surface of the filters were fixed with 10% formalin phosphate and stained with 0.1% Crystal Violet/20% (v/v) methanol. The migration was quantified using computer-assisted imaging and data are expressed as the average density of migrated cells per four fields (magnification×50).
Cells were plated onto gelatin-coated filters inserted in modified Boyden chemotactic chambers. The effect of PCK3145 on basal migration and on VEGF-induced migration was monitored by the number of cells that had migrated comparatively to untreated control cells. HUVEC were dislodged from the flasks by trypsinization, washed and resuspended in serum-free media. Cells were placed onto gelatin-coated filters inserted in chambers and incubated at 37° C., 5% CO2 for 30 min to allow adequate anchoring to the filters. The monolayers were then exposed to serum-free media containing PCK3145 (300 μg/ml) added within the upper and lower compartment of the chambers. After 2 h, VEGF (50 ng/ml) was added in the lower chamber as a chemoattractant. Cell migration was allowed to proceed for another 3 h. Filters were then fixed, stained, and the migrated cells quantified by microscopy as described in the Methods section. […] The effect of. PCK on S1P-induced HUVEC migration was also measured, but no inhibition was observed (not shown) in this particular assay.

FSH receptor = molecular target: T2, FSH receptor (Homo sapiens, UniProt P23945); details: testicular membrane preparations; Vijayalakshmi et al., 1981; cited from earlier work
T2 construct: host or cells: testicular membrane preparations
T2 sequence (P23945 18-695): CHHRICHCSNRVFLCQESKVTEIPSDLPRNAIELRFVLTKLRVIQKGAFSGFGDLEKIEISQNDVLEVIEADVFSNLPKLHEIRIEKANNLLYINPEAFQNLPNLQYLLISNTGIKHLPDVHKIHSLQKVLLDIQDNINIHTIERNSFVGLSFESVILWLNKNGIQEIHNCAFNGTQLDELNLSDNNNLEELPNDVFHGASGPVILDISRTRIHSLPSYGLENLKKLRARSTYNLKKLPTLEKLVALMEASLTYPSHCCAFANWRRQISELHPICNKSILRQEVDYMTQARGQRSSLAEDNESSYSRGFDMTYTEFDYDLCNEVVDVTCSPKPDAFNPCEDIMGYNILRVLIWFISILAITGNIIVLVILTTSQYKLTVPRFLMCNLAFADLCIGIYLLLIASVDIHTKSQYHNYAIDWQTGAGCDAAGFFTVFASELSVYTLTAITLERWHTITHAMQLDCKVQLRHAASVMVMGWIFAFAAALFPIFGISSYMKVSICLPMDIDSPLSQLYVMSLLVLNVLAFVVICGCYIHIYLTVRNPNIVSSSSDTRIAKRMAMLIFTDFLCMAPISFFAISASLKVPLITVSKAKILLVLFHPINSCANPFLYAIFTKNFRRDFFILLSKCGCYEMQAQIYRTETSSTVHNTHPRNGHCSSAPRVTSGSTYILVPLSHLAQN

skeletal metastasis = details: WO03/039576; cited from earlier work
tumor cells = details: U.S. Pat. No. 5,428,011; cited from earlier work
FSH = details: Thakur et al., 1981; cited from earlier work

Molecule: COc1cccc(-c2cc(=O)c3ccccc3o2)c1N [PD98059, reference compound]
- induction of ERK phosphorylation by the PCK3145 derivative (ERK [1]; MAPK inhibitor added): antagonized
- VEGF-induced proMMP-2 extracellular levels (proMMP-2): significantly decreased

Molecule: TC(Acm)ENC(Acm)TETQWC(Acm)ETDY [scrambled peptide, reference compound]
- induction of ERK phosphorylation (ERK [1]; compared to the PCK3145 derivative): unable to induce
- VEGF-induced VEGFR-2 phosphorylation, negative control (VEGFR-2): lack of effect
- VEGF-induced ERK phosphorylation, negative control (ERK [2]): lack of effect

Molecule: EWQTDNCETCTCYET (cysteine pairing not given here) [PCK3145, PSP94 fragment, 15 amino acids]
- basal cell migration (HUVEC): no significant effect
- VEGF-induced cell migration (HUVEC; VEGF 50 ng/ml): no significant effect

B1: PSP94: Prostate secretory protein of human seminal fluid, 10.7 kDa, 10 cysteine residues; wild type, 94 amino acids (protein, UniProt P08118 21-114, looked up)
Beta-microseminoprotein: SCYFIPNEGVPGDSTRKCMDLKGNKHPINSEWQTDNCETCTCYETEISCCTLVSTPVGYDKDNCQRIFKKEDCKYIVVEKKDPKKTCSVSEWII
- binding of FSH to its receptor (FSH receptor): interfere
- development of skeletal metastasis (skeletal metastasis): reduces
- growth of tumor cells (tumor cells): inhibits
- FSH levels (FSH): lower
